Holding throughout (conditions): procedure of example 2
Test [1] deals with breast carcinoma cell lines BT20. As to the kind of experiment: Increase in the activity of cytostatics with nanoparticles (Table 1), BT20. Type of test: cell-based, human. The method, then: (§1) The experiments in vitro were carried out with the cell lines BT20 (breast carcinoma) and WiDr (colon carcinoma). The tumor cells were taken from tumor tissue of a patient and cultivated as described in DE 199 12 798 C1. 2×10^6 cells, respectively, were prepared in a 75 cm^3 cell culture bottle with 25 ml of cell culture medium (RPMI+10% FBS+1.2 ml of pyruvate for WiDr cells, or respectively BME+10% FBS+pyruvate+5 ml of non-essential amino acids+5 ml glutamine for BT20 cells) for testing the efficacy of the cefamandole/nanoparticle mixture. 136 μl of magnetic fluid MFL AS M01 (iron oxide nanoparticle coated with polycondensed N-(2-aminoethyl)-3-(trimethoxysilyl)propylamine, manufacturer: MagForce Nanotechnologies GmbH, Berlin, Germany) (cFe=2 mol/l) and 390 μl of cefamandole solution (stock solution 1 mg/ml in 0.9% NaCl) were added to said cell suspension.
(§2) Corresponding to the experiment procedure according to example 2, the following […] were tested in vitro with the active ingredients listed in table 1: a) glioblastoma human cell line RUSIRS 1; b) breast carcinoma cell lines BT20; c) colon carcinoma cell line WiDR; d) bronchial carcinoma cells NSCLC, e) rectal carcinoma cells and f) prostate carcinoma cell line DU 145.
(§3) In all cases, an increased activity of the cytostatic could be observed. The increase in activity is indicated in parentheses after the respective cytostatic, wherein (+) means an increase of about 5% to 80% and (++) means an increase of 80% to 500%.

The next test deals with rectal carcinoma cells. Nature of the test: Increase in the activity of cytostatics with nanoparticles (Table 1), rectal carcinoma. Type of test: cell-based. The method, then: as §1, §2, §3
The test system of test [2] is prostate carcinoma cell line DU 145. Nature of the test: Increase in the activity of cytostatics with nanoparticles (Table 1), DU 145. Type of test: cell-based. As to the method:
as §1, §2, §3

The test system of test [3] is colon carcinoma cell line WiDr. As to the kind of experiment: Increase in the activity of cytostatics with nanoparticles (Table 1), WiDr. The class given is cell-based, human. The method, then:
as §1, §2, §3

In the next test the test system is neuroglioma cell line H4. As to the kind of experiment: Increase in the activity of cytostatics with nanoparticles (Table 1), H4. The class given is cell-based. As to the method: as §1, §2, §3
In test [4] the test system is glioblastoma human cell line RUSIRS1. As to the kind of experiment: Increase in the activity of cytostatics with nanoparticles (Table 1), RUSIRS1. Type of test: cell-based. The method, then: as §1, §2, §3
Test [5] relates to bronchial carcinoma cells NSCLC. Nature of the test: Increase in the activity of cytostatics with nanoparticles (Table 1), NSCLC. The class given is cell-based. The method, then:
as §1, §2, §3

For the compound `Nc1nc2c(ncn2COCCO)c(=O)[nH]1` [acyclovir], the “increase in the activity of cytostatics” value in test [1] is “(+) ((+) means an increase of about 5% to 80%)”; with rectal carcinoma cells it was “(++) ((++) means an increase of 80% to 500%)”; in test [2], “(+) ((+) means an increase of about 5% to 80%)”; in test [3], “(+) ((+) means an increase of about 5% to 80%)”; with neuroglioma cell line H4, “(+) ((+) means an increase of about 5% to 80%)”; in test [4] it was “(+) ((+) means an increase of about 5% to 80%)”. The “increase in the activity of cytostatics” value in test [5] is on record as “(+) ((+) means an increase of about 5% to 80%)”.

Turning to `CC[C@@H]1/C=C(\C)C[C@H](C)C[C@H](OC)[C@H]2O[C@@](O)(C(=O)C(=O)N3CCCC[C@H]3C(=O)O[C@H](/C(C)=C/[C@@H]3CC[C@@H](O)[C@H](OC)C3)[C@H](C)[C@@H](O)CC1=O)[C@H](C)C[C@@H]2OC` [ascomycin], the “increase in the activity of cytostatics” value was “(+) ((+) means an increase of about 5% to 80%)” in test [1]; “(+) ((+) means an increase of about 5% to 80%)” in the test on rectal carcinoma cells; “(+) ((+) means an increase of about 5% to 80%)” in test [2]; “(+) ((+) means an increase of about 5% to 80%)” in test [3]; “(++) ((++) means an increase of 80% to 500%)” in test [4]; “(+) ((+) means an increase of about 5% to 80%)” in test [5].

As to `CN1CCCC(n2nc(Cc3ccc(Cl)cc3)c3ccccc3c2=O)CC1` (stereo not drawn) [azelastine], the “increase in the activity of cytostatics” value (in test [1]; with rectal carcinoma cells; in test [2]; in the test with neuroglioma cell line H4; in test [4]) was “(+) ((+) means an increase of about 5% to 80%)” throughout.

`Cn1c(CCCC(=O)O)nc2cc(N(CCCl)CCCl)ccc21` [bendamustine]: the “increase in the activity of cytostatics” value in test [1], in test [2], in test [4] and in test [5] was “(+) ((+) means an increase of about 5% to 80%)” each time.

Consider `CS(=O)(=O)OCCCCOS(C)(=O)=O` [busulfan], for which the “increase in the activity of cytostatics” value in test [2] is on record as “(+) ((+) means an increase of about 5% to 80%)”; in test [3] it was “(+) ((+) means an increase of about 5% to 80%)”; in the test with neuroglioma cell line H4, “(+) ((+) means an increase of about 5% to 80%)”; in test [4], “(+) ((+) means an increase of about 5% to 80%)”; in test [5], “(++) ((++) means an increase of 80% to 500%)”.

For `O=NN(CCCl)C(=O)NCCCl` [carmustine], the “increase in the activity of cytostatics” value (in test [1]; in the test on rectal carcinoma cells; in test [2]; in test [3]; with neuroglioma cell line H4; in test [4]) was “(+) ((+) means an increase of about 5% to 80%)” throughout. Further, the “increase in the activity of cytostatics” value in test [5] was “(++) ((++) means an increase of 80% to 500%)”.

For the compound `COCc1c(C(C)C)nc(C(C)C)c(/C=C/[C@@H](O)C[C@@H](O)CC(=O)O)c1-c1ccc(F)cc1` [cerivastatin], the “increase in the activity of cytostatics” value in test [1] is reported as “(+) ((+) means an increase of about 5% to 80%)”; with rectal carcinoma cells, “(++) ((++) means an increase of 80% to 500%)”; in test [2] it was “(+) ((+) means an increase of about 5% to 80%)”; in test [3] it was “(+) ((+) means an increase of about 5% to 80%)”; in the test with neuroglioma cell line H4, “(+) ((+) means an increase of about 5% to 80%)”; in test [4] it was “(+) ((+) means an increase of about 5% to 80%)”. Besides, the “increase in the activity of cytostatics” value in test [5] is reported as “(+) ((+) means an increase of about 5% to 80%)”.

For `O=C(O)CCCc1ccc(N(CCCl)CCCl)cc1` [chlorambucil], the “increase in the activity of cytostatics” value is given as “(+) ((+) means an increase of about 5% to 80%)” in test [1]; “(+) ((+) means an increase of about 5% to 80%)” in the test on rectal carcinoma cells; “(+) ((+) means an increase of about 5% to 80%)” in test [2]; “(++) ((++) means an increase of 80% to 500%)” in test [3]; “(++) ((++) means an increase of 80% to 500%)” in the test on neuroglioma cell line H4; “(+) ((+) means an increase of about 5% to 80%)” in test [4]. Also, the “increase in the activity of cytostatics” value in test [5] is listed as “(+) ((+) means an increase of about 5% to 80%)”.

As to `Nc1nc(Cl)nc2c1ncn2[C@H]1C[C@H](O)[C@@H](CO)O1` [cladribine], the “increase in the activity of cytostatics” value in test [1] is “(+) ((+) means an increase of about 5% to 80%)”; in test [2], “(+) ((+) means an increase of about 5% to 80%)”; in test [3] it was “(++) ((++) means an increase of 80% to 500%)”; with neuroglioma cell line H4, “(+) ((+) means an increase of about 5% to 80%)”; in test [4] it was “(+) ((+) means an increase of about 5% to 80%)”; in test [5] it was “(++) ((++) means an increase of 80% to 500%)”.

Turning to `O=C(O)Cc1ccccc1Nc1c(Cl)cccc1Cl` [diclofenac], the “increase in the activity of cytostatics” value is recorded as “(++) ((++) means an increase of 80% to 500%)” in the test with rectal carcinoma cells; “(+) ((+) means an increase of about 5% to 80%)” in test [2]; “(+) ((+) means an increase of about 5% to 80%)” in test [3]; “(+) ((+) means an increase of about 5% to 80%)” in the test on neuroglioma cell line H4; “(+) ((+) means an increase of about 5% to 80%)” in test [4]; “(+) ((+) means an increase of about 5% to 80%)” in test [5].

In the case of `COC(=O)C1=C(C)NC(C)=C(C(=O)OC)C1c1ccccc1[N+](=O)[O-]` [nifedipine], the “increase in the activity of cytostatics” value (in test [1]; in test [2]; in test [3]; in the test on neuroglioma cell line H4; in test [4]; in test [5]) was “(+) ((+) means an increase of about 5% to 80%)” in each case.

On to `C=CC[C@@H]1/C=C(\C)C[C@H](C)C[C@H](OC)[C@H]2O[C@@](O)(C(=O)C(=O)N3CCCC[C@H]3C(=O)O[C@H](/C(C)=C/[C@@H]3CC[C@@H](O)[C@H](OC)C3)[C@H](C)[C@@H](O)CC1=O)[C@H](C)C[C@@H]2OC` [tacrolimus], for which the “increase in the activity of cytostatics” value in test [1] was “(+) ((+) means an increase of about 5% to 80%)”; in the test with rectal carcinoma cells, “(+) ((+) means an increase of about 5% to 80%)”; in test [2] it was “(+) ((+) means an increase of about 5% to 80%)”; with neuroglioma cell line H4 it was “(++) ((++) means an increase of 80% to 500%)”; in test [4] it was “(+) ((+) means an increase of about 5% to 80%)”; in test [5], “(+) ((+) means an increase of about 5% to 80%)”.

Turning to `CC/C(=C(\c1ccccc1)c1ccc(OCCN(C)C)cc1)c1ccccc1` [tamoxifen], the “increase in the activity of cytostatics” value in test [1] is on record as “(+) ((+) means an increase of about 5% to 80%)”; in test [2], “(+) ((+) means an increase of about 5% to 80%)”; in test [3], “(++) ((++) means an increase of 80% to 500%)”; with neuroglioma cell line H4, “(+) ((+) means an increase of about 5% to 80%)”; in test [4], “(+) ((+) means an increase of about 5% to 80%)”; in test [5], “(+) ((+) means an increase of about 5% to 80%)”.

For the origin of these results see patent publication US9827312B2, “Method for carrying therapeutic substances into cells” (MAGFORCE AG, priority 2005, dated 2017).
